This assay has as its target T1, CDK2 (Homo sapiens, UniProt P24941).
T1 construct: made in house; host or cells: Sf21 insect cells (stated for the CDK2/Cyclin E option; by analogy to CDK4/Cyclin D1 baculovirus co-infection)
Briefly: CDK2 inhibition assay (in vitro kinase SPA, by analogy to the CDK4 assay). In kind it is biochemical. As to conditions: read-out: CDK2 inhibitory activity IC50. How it is done:
The compounds were tested in an in vitro kinase assay in 96 well format using Scintillation Proximity Assay (SPA—obtained from Amersham) for measuring incorporation of [γ-33-P]-Adenosine Triphosphate into a test substrate (GST-Retinoblastoma). In each well was placed the compound to be tested (diluted in DMSO and water to correct concentrations) and in control wells either p16 as an inhibitor control or DMSO as a positive control.
Approximately 0.5 μl of CDK4/Cyclin D1 partially-purified enzyme (amount dependent on enzyme activity) diluted in 25 μl incubation buffer was added to each well then 20 μl of GST-Rb/ATP/ATP33 mixture (containing 0.5 μg GST-Rb and 0.2 μM ATP and 0.14 μCi [γ-33-P]-Adenosine Triphosphate), and the resulting mixture shaken gently, then incubated at room temperature for 60 minutes.
To each well was then added 150 μL stop solution containing (0.8 mg/well of Protein A-PVT SPA bead (Amersham)), 20 pM/well of Anti-Glutathione Transferase, Rabbit IgG (obtained from Molecular Probes), 61 mM EDTA and 50 mM HEPES pH 7.5 containing 0.05% sodium azide.
The plates were sealed with Topseal-S plate sealers, left for two hours then spun at 2500 rpm, 1124×g., for 5 minutes. The plates were read on a Topcount for 30 seconds per well. […]

In patent publication US7153964B2, “Pyrimidine compounds” (AstraZeneca AB, priority 2000, dated 2006) one finds IC50 data, which are given here for one compound.

A word on the IC50: it is the concentration needed to halve the response being measured. On to `N#Cc1ccccc1Nc1nc(Nc2ccc(S(N)(=O)=O)cc2)ncc1Cl` [Example 23, 2-(4-Sulphamoylanilino)-4-(2-cyanoanilino)-5-chloropyrimidine], for which the IC50 is 347 nM.
